Assays:
ACT-mRNA = test: Northern blot of ACT-mRNA, astrocytoma cells; format: cell-based, human; conditions: Northern blot, 16 hours stimulation
Experimental: Total RNA (10 μg) was extracted from primary astrocytes and astrocytoma cells with a RNA-STAT kit (Tel-Test). RNA samples were denatured in 50% formamide/2.2 M formaldehyde/20 mM MOPS/5 mM sodium acetate/0.5 mM EDTA, pH 7.4, at 60° C. for 10 minutes, electrophoresed on 1.0% agarose-formaldehyde gels, blotted onto Hybond-N filters and immobilized by UV crosslinking and heating filters to 80° C. Filters were prehybridized for 3 hours and hybridized overnight in a solution consisting of 50% formamide, […] denatured salmon sperm DNA, 5×SSC, 0.1% sodium dodecyl sulfate and 5×Denhardt's solution. Following hybridization, filters were washed twice for a total of 1 hour in 2×SSC/0.2% sodium dodecyl sulfate at room temperature and twice each for a total of 1 hour in 0.5×SSC/0.1% sodium dodecyl sulfate at 55° C. Equal loading was verified by ethidium bromide staining, non-specific hybridization of the ACT probe to the 28S rRNA, and by standardized hybridization to the GAPDH cDNA probe as an internal standard. The APP cDNA probe corresponded to the unique internal 1 kb fragment gel purified from the 3 kb APP cDNA (Kang et al. Nature 325: 733 (1987)), the ACT cRNA probe to a PstI/SacI fragment (536-943) in the human ACT cDNA (Chandra, et al., Biochemistry 22: 5055 (1983)) and the GAPDH probe to the human GAPDH gene (Tokunaga, et al., Cancer Res. 47: 5616 (1987)).

[1] = system: APP protein synthesis in primary human fetal astrocytes; test: Intracellular APP protein synthesis, [35S]-methionine pulse labeling and immunoprecipitation, primary astrocytes; format: cell-based; conditions: 0.5 ng/ml, 16 hours, 30 minute [35S]-methionine labeling
Experimental: Primary human astrocytes were prepared by trypsinization of human fetal brain tissue by a previously described method (Das, et al., Neuron 14; 447 (1995)). Cells were seeded onto poly-L-lysine (10 μg/ml) coated plates and were grown to 70% confluence in DMEM medium, (low glucose) supplemented with 10% fetal bovine serum. In order to eliminate microglia, the cultures were treated with 5 mM H-Leu-O-methylester (Guilian, J. Neurosci. Res. 18:155 (1987)). For immunofluorescence, cells were replated at a density of 100,000 cells per 60-mm petri dish on poly-L-lysine coated glass coverslips and grown for 24 hours in 0.5 ml of medium to allow the cells to attach. The presence of glial fibrillary acidic protein (GFAP) was detected by immunofluorescent staining of formaldehyde fixed cells using a 1:10 dilution of rabbit IgG1 antibody specific for human GFAP. Primary GFAP-specific antibody was added to the coverslips for 30 minutes at room temperature in phosphate buffered saline and 10% goat serum. […] Fluorescence microscopy scored the cells used in the metabolic experiments as 95% pure astrocytes. […]
Intracellular APP protein synthesis was determined in primary astrocytes after plating cells in equal numbers into 8 microtiter wells prior to each treatment (1×10^5 cells per well in 96 well dishes). […]

[2] = system: L-ferritin synthesis in astrocytoma (U373MG) cells; test: L-ferritin synthesis, astrocytoma cells; format: cell-based, human; conditions: 0.5 ng/ml, 16 hrs
Experimental: Primary human astrocytes were prepared by trypsinization of human fetal brain tissue by a previously described method (Das, et al., Neuron 14; 447 (1995)). Cells were seeded onto poly-L-lysine (10 μg/ml) coated plates and were grown to 70% confluence in DMEM medium, (low glucose) supplemented with 10% fetal bovine serum. In order to eliminate microglia, the cultures were treated with 5 mM H-Leu-O-methylester (Guilian, J. Neurosci. Res. 18:155 (1987)). For immunofluorescence, cells were replated at a density of 100,000 cells per 60-mm petri dish on poly-L-lysine coated glass coverslips and grown for 24 hours in 0.5 ml of medium to allow the cells to attach. The presence of glial fibrillary acidic protein (GFAP) was detected by immunofluorescent staining of formaldehyde fixed cells using a 1:10 dilution of rabbit IgG1 antibody specific for human GFAP. Primary GFAP-specific antibody was added to the coverslips for 30 minutes at room temperature in phosphate buffered saline and 10% goat serum. The secondary antibodies used were goat anti-rabbit IgG conjugated to fluorescein isothiocyanate at a dilution of 1:100 (Boehringer). Fluorescence microscopy scored the cells used in the metabolic experiments as 95% pure astrocytes. […] The U373MG astrocytoma cell line was cultured on 100 mm uncoated dishes to 60-80% confluence in DMEM medium supplemented with 10% fetal bovine serum. […]

## interleukin-1α [IL-1α]
ACT-mRNA
  ACT mRNA transcriptional change: large transcriptional increase
[1]
  increase in the synthesis of intracellular APP: 4 fold
[2]
  enhanced rate of L-ferritin synthesis: 2 fold

## interleukin-1β [IL-1β]
ACT-mRNA
  ACT mRNA transcriptional change: large transcriptional increase
[1]
  increase in the synthesis of intracellular APP: 3 fold
[2]
  enhanced rate of L-ferritin synthesis: 2 fold
